# Assay results from PubChem BioAssay (NCI).
# “And” between values parts separate entries of the source, which are not always exact repeats. Equal values may be shown once.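 Dose response: 5 concentrations. Exposure: 48 h. Format: 96-well plates. Endpoint: linear interpolation; highest concentration if not reached. Here, GI50 denotes the concentration required for 50% inhibition of growth. TGI marks complete inhibition of growth.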
# How the values were obtained:
# Test in all cases: NCI-60 cell line screen, 48 h
# [1] = tested on: SNB-75 CNS
# [2] = tested on: NCI/ADR-RES ovarian
# [3] = tested on: HS 578T breast
# [4] = tested on: HCT-15 colon
# [5] = tested on: EKVX NSCLC
# [6] = tested on: SK-MEL-2 melanoma
# [7] = tested on: TK-10 renal
# [8] = tested on: ACHN renal
# [9] = tested on: A549 NSCLC
# [10] = tested on: T-47D breast
# [11] = tested on: SK-MEL-28 melanoma
# [12] = tested on: NCI-H226 lung
Compound,TGI [1],TGI [2],TGI [3] [µM],TGI [4],TGI [5],TGI [6],TGI [7] [µM],TGI [8] [µM],TGI [9],TGI [10] [µM],TGI [11],TGI [12],GI50 [1] [nM],GI50 [12] [nM],GI50 [5] [nM],GI50 [6] [nM],GI50 [9] [nM],GI50 [11] [nM]
Clc1cc(OC2C3CC4CC(C3)CC2C4)nc(Cl)n1 (stereo unspecified),86.7 µM,88.5 µM,42.9,33.3 µM,29.6 µM,25.8 µM,> 100,32.8,95.9 µM,53.4,29.1 µM,–,–,–,–,–,–,–
Oc1cccc2c(Cl)ccnc12,> 100 µM,> 100 µM,> 73.9,29.7 µM,> 30.8 µM,–,> 100,> 47.7,> 100 µM,48.2,35.9 µM,> 100 µM,–,–,–,–,–,–
Nc1cccc2cc(Cl)cnc12,> 100 µM,> 100 µM,> 100,> 100 µM,> 100 µM,–,> 100,> 100,> 100 µM,> 100,> 100 µM,> 100 µM,–,–,–,–,–,–
O=C(CCC(=O)c1ccc(Cl)cc1)NO,> 100 µM,> 100 µM,> 100,> 100 µM,> 100 µM,> 100 µM,> 100,> 100,> 100 µM,> 100,> 100 µM,> 100 µM,–,–,–,–,–,–
CCNC(=S)N/N=C/c1cc([N+](=O)[O-])ccc1O,> 100 µM,77.3 µM,> 100,> 100 µM,> 100 µM,> 100 µM,79.8,> 100,> 100 µM,> 100,> 100 µM,> 100 µM,–,–,–,–,–,–
CNC(=O)OCC1=C(COC(=O)NC)C(C)N(c2ccc(OC)cc2)C1 (stereo unspecified),> 100 µM,> 100 µM,> 100,> 100 µM,> 100 µM,> 100 µM,73,> 100,> 100 µM,> 100,> 100 µM,6.21 µM,–,–,–,–,–,–
CC1=C(C)[C@@]2(C)O[C@@]2(C)O[C@@]2(C)O[C@@]12C,> 100 µM,> 100 µM,> 100,> 100 µM,> 100 µM,> 100 µM,> 100,> 100,> 100 µM,> 100,> 100 µM,> 100 µM,–,–,–,–,–,–
NC(=O)C(c1ccccc1)N1OC2C(=O)N(c3ccccc3)C(=O)C2C1c1c2ccccc2c(Cl)c2ccccc12 (stereo unspecified),> 100 µM,> 100 µM,> 100,> 100 µM,> 100 µM,> 100 µM,–,> 100,> 100 µM,> 100,> 100 µM,> 100 µM,–,–,–,–,–,–
CN1CCN([C@H]2C[C@H]3[C@@H]4CC=C5C[C@@H](O)CC[C@]5(C)[C@H]4CC[C@]3(C)C2=O)CC1,> 100 µM,> 100 µM,> 100,> 100 µM,> 100 µM,> 100 µM,> 100,> 100,> 100 µM,> 100,> 100 µM,> 100 µM,–,–,–,–,–,–
C=C(C1=CC(=O)C(C)(C)O1)[C@@H]1CC=C([C@@H]2CC[C@H]3[C@@]2(C)CC[C@H]2C(C)(C)C(=O)[C@H](O)C[C@]32C)[C@H](O)O1,25.1 µM,25.4 µM,13.1,5.16 µM,22.2 µM,5.56 µM,2.64,3.04,30.7 µM,3.41,12.2 µM,40.3 µM,–,–,–,–,–,–
Cc1cc(=O)[nH]c(NN2C(Cl)C(=O)C2c2ccccc2O)n1 (stereo unspecified),> 76.2 µM,40.4 µM,> 100,> 100 µM,> 75.1 µM,> 100 µM,> 100,> 100,> 100 µM,> 100,> 65.4 µM,9.16 µM,–,–,–,–,–,–
COc1ccc(/C=C2\CCC(C)C3=C2NC(=S)NC3c2ccc(OC)c(OC)c2)cc1OC (stereo unspecified),> 100 µM,> 100 µM,> 31.6,> 31.6 µM,> 31.6 µM,> 31.6 µM,> 31.6,> 31.6,> 100 µM,> 27.4,> 31.6 µM,> 100 µM,–,–,–,–,–,–
C=C1c2nc3ccccc3n2C=C(c2ccccc2)N1c1ccc([N+](=O)[O-])cc1,16.4 µM,44.5 µM,30.3,32.1 µM,24.8 µM,56.3 µM,22.1,12.8,13.5 µM,> 53.5,> 65.2 µM,27.6 µM,–,–,–,–,–,–
COC(=O)[C@H]1CO[C@@H](C(C)(C)C)N1C(=O)N1C=CC(=O)C[C@@H]1C,> 100 µM,> 100 µM,> 100,–,> 100 µM,> 100 µM,> 100,> 100,> 100 µM,> 100,> 100 µM,> 100 µM,–,–,–,–,–,–
Cc1cccc(/C=N/NC(=S)Nc2ccccc2)n1,32.3 µM,10.8 µM,> 100,> 38.4 µM,> 49.3 µM,36 µM,> 95.3,13.7,> 100 µM,> 29.2,> 100 µM,> 25 µM,–,–,–,–,–,–
Cc1c2cnccc2c(C)c2c1c1ccccc1n2CCCN,1.48 µM and 0.368 µM,1.04 µM and 1.16 µM,2.37,0.724 µM and 1.11 µM,1.37 µM and 0.506 µM,1.59 µM and 1.42 µM,1.83,0.893,1.29 µM and 0.447 µM,2.03,1.98 µM and 1.25 µM,1.86 µM and 2.78 µM,169,1180,153,348,47.1,333
CC(C)/C(Cl)=N\OC(=O)Nc1ccc(S(N)(=O)=O)cc1,25.4 µM,40.5 µM,63.5,31.6 µM,32.6 µM,34.1 µM,31.8,26.8,37.9 µM,52,31.3 µM,45.5 µM,–,–,–,–,–,–
CC[C@@]1(O)C(=O)OCc2c1cc1n(c2=O)Cc2c-1nc1ccccc1c2/C=N\NC(=O)CN,6.21 µM,> 76.5 µM,> 100,> 100 µM,> 100 µM,> 100 µM,> 100,–,> 100 µM,> 20.3,> 100 µM,3.54 µM,–,–,–,–,–,–

Compound,TGI [1],TGI [2],TGI [3] [µM],TGI [4],TGI [5],TGI [6],TGI [7] [µM],TGI [8] [µM],TGI [9],TGI [10] [µM],TGI [11],TGI [12],GI50 [1] [nM],GI50 [12] [nM],GI50 [5] [nM],GI50 [6] [nM],GI50 [9] [nM],GI50 [11] [nM]
COC(=O)c1cc2c(n1S(=O)(=O)c1ccc(C)cc1)C(=O)C(=O)c1[nH]cc(C(=O)OCc3ccccc3)c1-2,0.3 µM,5.26 µM,5.8,0.256 µM,0.665 µM,0.358 µM,1.51,0.682,0.351 µM,0.975,0.226 µM,0.462 µM,–,–,–,–,–,–
COc1cc(/C=C/C(=N\NS(=O)(=O)c2ccc(C)cc2)c2sc(NNC(C)=O)nc2C)ccc1O,> 100 µM,> 100 µM,> 100,> 100 µM,> 100 µM,> 100 µM,> 100,> 100,> 100 µM,> 100,> 100 µM,> 100 µM,–,–,–,–,–,–
O=c1[nH][nH]c(=O)n1Cc1ccccc1Cn1c(=O)[nH][nH]c1=O,> 100 µM,> 100 µM,> 100,> 100 µM,> 100 µM,> 100 µM,> 100,> 100,> 100 µM,> 100,> 100 µM,> 100 µM,–,–,–,–,–,–
CC(C)c1ccc(/C=C2/C=C(c3ccc4ccccc4c3)OC2=O)cc1,> 100 µM,> 100 µM,> 100,> 100 µM,> 92.5 µM,39.6 µM,> 100,> 100,> 100 µM,> 100,> 100 µM,> 100 µM,–,–,–,–,–,–
O=C1CCC(=O)N1n1c(Cc2ccccc2)n[nH]c1=O,> 100 µM,> 100 µM,> 100,> 100 µM,> 100 µM,> 100 µM,> 100,> 100,> 100 µM,> 100,> 100 µM,> 100 µM,–,–,–,–,–,–
O=S1(=O)NC(=NCc2c[nH]c3ccccc23)N(c2ccccc2)c2ccncc21,43.3 µM,> 100 µM,92.7,> 100 µM,> 100 µM,> 100 µM,> 100,> 100,> 100 µM,> 100,> 100 µM,> 100 µM,–,–,–,–,–,–
CCOC(=O)C(NC(C)=O)(Nc1ccc(F)cc1)C(F)(F)F (stereo unspecified),> 100 µM,> 100 µM,> 100,> 100 µM,> 100 µM,> 100 µM,> 100,> 100,> 100 µM,81.5,> 100 µM,–,–,–,–,–,–,–
Clc1ccc(/C=C/c2nc3ccccc3s2)cc1Cl,40.9 µM,> 100 µM,80.8,> 100 µM,> 100 µM,–,> 100,> 100,> 100 µM,9.77,> 100 µM,–,–,–,–,–,–,–
COc1c(C)c(C/C=C(\C)CCCCO[Si](c2ccccc2)(c2ccccc2)C(C)(C)C)c(OC)c(OC)c1OC,> 46.4 µM,35.1 µM,> 100,> 46.4 µM,> 31.6 µM,> 100 µM,> 31.6,25.1,51 µM,> 100,> 100 µM,> 100 µM,–,–,–,–,–,–
CC(C)CC(=O)OC[n+]1ccc(-c2c(COC(=O)NC(C)C)c(COC(=O)NC(C)C)c3n2CCC3)cc1,> 100 µM,> 100 µM,> 100,> 100 µM,> 100 µM,> 100 µM,> 100,> 100,> 100 µM,> 100,> 100 µM,> 100 µM,–,–,–,–,–,–
COc1ccc(C(OCC2OC(n3cc(C)c(=O)[nH]c3=O)CC2n2cc(Cn3cc(I)c(=O)[nH]c3=O)nn2)(c2ccccc2)c2ccccc2)cc1 (stereo unspecified),> 100 µM,> 100 µM,> 100,> 100 µM,> 100 µM,> 100 µM,> 100,> 100,> 100 µM,> 100,> 100 µM,> 100 µM,–,–,–,–,–,–
O=C1/C(=C/c2ccc(O)cc2)CC/C1=C\c1ccc(O)cc1,> 100 µM,> 100 µM,> 100,> 100 µM,> 100 µM,> 100 µM,> 100,> 100,> 100 µM,> 100,> 100 µM,> 100 µM,–,–,–,–,–,–
COc1ccc(N2C(=O)C3c4[nH]c5ccccc5c4C4CCC(C(C)(C)C)CC4C3C2=O)c(C)c1 (stereo unspecified),> 100 µM,> 100 µM,> 100,> 100 µM,> 100 µM,–,> 100,> 100,> 100 µM,> 100,> 100 µM,> 100 µM,–,–,–,–,–,–
CC1(C)N=C(/C(Cl)=[N+](/[O-])C(=O)c2ccc(F)cc2)C(C)(C)N1O,32.7 µM,> 100 µM,57.1,26.9 µM,40.6 µM,40.3 µM,29.7,36.5,> 100 µM,58.5,32.4 µM,42.2 µM,–,–,–,–,–,–
N#CC1=C(N)N(c2ccccc2)C(c2ccco2)C1(C#N)C#N (stereo unspecified),66.8 µM,56.2 µM,> 100,43.2 µM,73.3 µM,59.4 µM,31.5,32,> 100 µM,81,38.9 µM,42 µM,–,–,–,–,–,–
Cc1ccc(SCC(CSCCO)OCn2cnc3c2NC(N)=NC32OCCO2)cc1 (stereo unspecified),> 100 µM,> 100 µM,> 100,> 100 µM,> 100 µM,> 100 µM,> 100,> 100,> 100 µM,> 100,> 100 µM,–,–,–,–,–,–,–
Cc1ccsc1/C=N/Nc1ncccn1,> 100 µM,> 100 µM,> 100,> 100 µM,> 100 µM,> 100 µM,> 100,> 100,> 100 µM,> 100,> 100 µM,> 100 µM,–,–,–,–,–,–
Cc1cn(C2CC(n3cc(Cn4cc(I)c(=O)[nH]c4=O)nn3)C(CO)O2)c(=O)[nH]c1=O (stereo unspecified),> 100 µM,> 100 µM,> 100,> 100 µM,–,> 100 µM,> 100,> 100,> 100 µM,> 100,> 100 µM,> 100 µM,–,–,–,–,–,–
